{"source": "ChEMBL document CHEMBL2057100", "about": "“The optimization of pyridazinone series of glucan synthase inhibitors” (Bioorg Med Chem Lett, 2012)", "key": {"[1]": {"test_system": "Candida albicans", "assay": "Antifungal activity against Candida albicans C697 infected in normal mouse assessed as reduction of fungal burden in kidney at 5 mg/kg, ip", "format": "functional, organism-based", "design": "dose 5 mg/kg"}, "[2]": {"test_system": "Candida albicans", "assay": "Antifungal activity against Candida albicans C697 infected in immune compromised mouse assessed as increase of host survival at 5 mg/kg, ip measured for 4 days", "format": "functional", "settings": "96 h, route intraperitoneal"}, "[3]": {"test_system": "Candida albicans", "assay": "Antifungal activity against Candida albicans C697 infected in immune compromised mouse assessed as reduction of fungal burden in kidney at 5 mg/kg, ip", "format": "functional, organism-based", "design": "dose 5 mg/kg"}, "[4]": {"test_system": "Candida albicans", "assay": "Antifungal activity against Candida albicans C697 infected in normal mouse assessed as increase of host survival at 5 mg/kg, ip measured for 4 days", "format": "functional", "settings": "96 h, route intraperitoneal"}, "[5]": {"test_system": "Candida albicans", "assay": "Antifungal activity against Candida albicans C697 infected in normal mouse assessed as increase of host survival at 100 mg/kg, ip measured for 4 days", "format": "functional", "settings": "96 h, route intraperitoneal"}, "[6]": {"test_system": "Candida albicans", "assay": "Antifungal activity against Candida albicans C697 infected in immune compromised mouse assessed as increase of host survival at 100 mg/kg, ip measured for 4 days", "format": "functional", "settings": "96 h, route intraperitoneal"}, "[7]": {"target": "T1, Beta-1,3-glucan synthase (Candida albicans, UniProt O13383)", "T1 sequence (O13383 whole entry)": "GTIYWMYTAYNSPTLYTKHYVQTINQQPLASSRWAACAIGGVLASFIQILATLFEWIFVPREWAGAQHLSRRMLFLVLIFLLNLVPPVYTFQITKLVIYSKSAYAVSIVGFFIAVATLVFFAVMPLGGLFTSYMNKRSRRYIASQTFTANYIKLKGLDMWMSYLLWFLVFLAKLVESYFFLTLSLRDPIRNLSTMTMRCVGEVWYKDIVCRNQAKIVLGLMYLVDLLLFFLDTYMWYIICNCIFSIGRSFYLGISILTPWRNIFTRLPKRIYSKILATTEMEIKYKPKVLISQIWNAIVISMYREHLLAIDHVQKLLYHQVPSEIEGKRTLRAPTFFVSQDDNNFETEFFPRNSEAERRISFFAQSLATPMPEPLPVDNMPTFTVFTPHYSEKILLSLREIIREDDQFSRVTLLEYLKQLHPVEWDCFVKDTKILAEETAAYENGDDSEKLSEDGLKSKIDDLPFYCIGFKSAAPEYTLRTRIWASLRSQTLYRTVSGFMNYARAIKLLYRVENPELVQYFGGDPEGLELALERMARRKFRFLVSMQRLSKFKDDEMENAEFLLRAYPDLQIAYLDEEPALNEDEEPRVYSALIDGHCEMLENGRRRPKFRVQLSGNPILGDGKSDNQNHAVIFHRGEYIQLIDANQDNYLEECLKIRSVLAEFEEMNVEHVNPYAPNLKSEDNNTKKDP", "assay": "Inhibition of 1,3-beta-D-glucan synthase in Candida albicans BWP17 membranes", "format": "cell membranes"}, "[8]": {"test_system": "Rattus norvegicus", "assay": "AUC (0 to 6 hrs) in rat at 10 mg/kg, po", "format": "ADME, organism-based, Plasma", "design": "time < 6 hr, dose 10 mg/kg, route oral", "settings": "in vivo, 6 h, BLD = below limit of detection"}, "[9]": {"test_system": "Candida albicans", "assay": "Antifungal activity against Candida albicans C693 by broth dilution method", "format": "functional", "settings": "read-out: MIC100"}, "[10]": {"test_system": "Nakaseomyces glabratus", "assay": "Antifungal activity against Candida glabrata C624 by broth dilution method", "format": "functional", "settings": "read-out: MIC100"}}, "note": "The source made the active and inactive calls. The calls are words filed in the database; no cut-off is given here."}
{"smiles": "CC[C@H](C)C[C@H](C)CCCCCCCCC(=O)N[C@H]1C[C@@H](O)[C@@H](NCCN)NC(=O)[C@@H]2[C@@H](O)CCN2C(=O)[C@H]([C@H](O)CCN)NC(=O)[C@H]([C@H](O)[C@@H](O)c2ccc(O)cc2)NC(=O)[C@@H]2C[C@@H](O)CN2C(=O)[C@H]([C@@H](C)O)NC1=O", "note": "[CASPOFUNGIN]", "values": [{"measurement": "Activity", "setting": "[1]", "value": "Active"}, {"measurement": "survival at 5 mg/kg", "setting": "[2]", "value": 100, "unit": "%"}, {"measurement": "Activity", "setting": "[3]", "value": "Active"}, {"measurement": "survival at 5 mg/kg", "setting": "[4]", "value": 100, "unit": "%"}]}
{"smiles": "Cc1cc(CS(=O)(=O)N2CCN(c3cnn(-c4cccc(Cl)c4)c(=O)c3OCC3(C)CC3)CC2)ccc1N", "values": [{"measurement": "survival at 100 mg/kg", "setting": "[5]", "value": 100, "unit": "%"}, {"measurement": "survival at 100 mg/kg", "setting": "[6]", "value": 100, "unit": "%"}]}
{"smiles": "O=c1c(OC2CCCC2)c(N2CCN(S(=O)(=O)Cc3cccc(O)c3)CC2)cnn1-c1cc(F)cc(F)c1", "values": [{"measurement": "IC50", "setting": "[7]", "value": 91.5, "unit": "nM"}, {"measurement": "AUC", "setting": "[8]", "value": "BLD"}, {"measurement": "MIC", "setting": "[9]", "value": 2.1, "unit": "µg/mL"}, {"measurement": "MIC", "setting": "[10]", "value": 0.26, "unit": "µg/mL"}]}
